From article PMC5403886, “A Novel Spiro-Heterocyclic Compound Identified by the Silkworm Infection Model Inhibits Transcription in Staphylococcus aureus” (Frontiers in Microbiology, 2017)

Biological target: T1, SigA (primary sigma factor of RNA polymerase) (Staphylococcus aureus, UniProt P0A0J0)
T1 construct: His-tagged recombinant SigA (sigA from S. aureus RN4220, pET28a)
Assay: pull-down with His-tagged SigA on cobalt magnetic beads, HPLC of eluted compound
Type: binding

T1 sequence (P0A0J0 whole entry): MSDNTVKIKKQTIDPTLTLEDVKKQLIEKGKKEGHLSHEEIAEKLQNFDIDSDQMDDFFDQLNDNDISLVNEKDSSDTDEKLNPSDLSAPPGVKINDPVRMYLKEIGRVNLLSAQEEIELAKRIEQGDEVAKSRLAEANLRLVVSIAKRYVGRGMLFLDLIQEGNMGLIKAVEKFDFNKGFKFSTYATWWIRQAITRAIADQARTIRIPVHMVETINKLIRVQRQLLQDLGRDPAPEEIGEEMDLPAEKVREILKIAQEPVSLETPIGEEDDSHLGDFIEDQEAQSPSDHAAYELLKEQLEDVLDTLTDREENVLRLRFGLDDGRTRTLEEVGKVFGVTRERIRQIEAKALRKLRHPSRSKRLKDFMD

In the case of `CCCNC(=O)N1CCC2(CC1)Nc1cc(F)ccc1-n1cccc12` [GPI0363, 7-fluoro-N-propylspiro[5H-pyrrolo[1,2-a]quinoxaline-4,4′-piperidine]-1′-carboxamide], the “pull-down with His-tagged SigA on cobalt magnetic beads, HPLC of eluted compound” value was “The peak of GPI0363 appeared when mixed with SigA whereas the peak was not observed when SigA was omitted”.
